Source: US20240228572A1 (i2o Therapeutics, Inc., priority 2020, published 2024)
*1 amine or outer side, *2 acyl side, *3 side chain or, on linkers, in order; H or OH if unused. Where a SMILES comes first, the peptide text is derived from it. Bridges are numbered along the chain shown (N, C = ends). Side-chain parts run from the residue outwards. [ ]: non-standard residue; d: D form. The star is where a group is joined. C20 diacid = O=C(O)CCCCCCCCCCCCCCCCCCC(=O)*; γGlu = O=C(O)[C@H](CCC(=O)[*:2])N[*:1]; AEEA = NCCOCCOCC(=O)O; Aib = CC(C)(N)C(=O)O

Columns and labels:
[1] = target: T1, human GLP-1 receptor (GLP-1R) (Homo sapiens, UniProt P43220); experiment: cAMP accumulation assay, CHO-K1 cells stably expressing human GLP-1R; type: cell-based; conditions: cAMP accumulation, mean pEC50, Table 10
T1 construct: expressed in transfected cells
T1 sequence (P43220 24-463): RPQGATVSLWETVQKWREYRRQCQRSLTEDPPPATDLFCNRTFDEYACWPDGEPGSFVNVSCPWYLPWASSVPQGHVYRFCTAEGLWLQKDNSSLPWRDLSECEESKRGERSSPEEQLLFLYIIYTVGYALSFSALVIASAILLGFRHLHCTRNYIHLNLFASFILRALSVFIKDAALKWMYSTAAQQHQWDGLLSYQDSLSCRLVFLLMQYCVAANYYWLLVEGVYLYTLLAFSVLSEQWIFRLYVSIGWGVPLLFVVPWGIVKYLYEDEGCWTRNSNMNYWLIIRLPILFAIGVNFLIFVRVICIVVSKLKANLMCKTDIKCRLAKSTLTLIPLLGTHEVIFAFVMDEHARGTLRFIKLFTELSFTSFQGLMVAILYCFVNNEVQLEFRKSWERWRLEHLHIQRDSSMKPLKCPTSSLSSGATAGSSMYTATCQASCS
Procedure: (§1) In the presence of the non-specific cAMP/cGMP phosphodiesterase inhibitor, 3-isobutyl-1-methylxanthine (IBMX), accumulating cAMP can be measured in vitro using common detection methods. Thus, it is possible to estimate an in vitro potency (pEC50) for peptides activating each of these receptors using fit dose-response curves for cAMP accumulation.
CHO-K1 cells stably expressing human GLP-1R (Genebank accession #NM_002062) were grown in 90% F12-K media supplemented with 10% FBS and 250 μg/ml G418.
(§2) On day 1, CHO-K1 cells were plated at 1.5 million cells per T75 flask in 90% F12-K media supplemented with 10% FBS. On day 3 cells were transfected with 40 mcg of each expression plasmid using Lipofectamine 2000 transfection reagent. On day 5, cells were dispensed at 1000 cells per well in white 384-well OptiPlates in 5 mcL of assay buffer consisting of 1×HBSS, 5 mM HEPES, 0.5 mM IBMX, and 0.1% casein.
(§3) Peptides were serially diluted 4-fold in assay buffer to final concentrations ranging from 1×10^−9 M to 9.5×10^−16 M. Two assay controls consisting of 50 mcM forskolin (cAMP system maximum) or assay buffer only (cAMP system minimum) were also prepared. Five microliters of each peptide-concentration, or assay control, was added to triplicate wells and incubated for thirty minutes at room temperature. During this incubation step a 4× europium labelled cAMP tracer solution and a 4× Ulight®-anti-cAMP solution (consisting of an anti-cAMP monoclonal antibody labelled with Ulight™ dye) was prepared according to the manufacturer's protocol (PerkinElmer LANCE Ultra cAMP kit). Following this incubation, 5 mcL europium labelled cAMP and 5 mcL Ulight anti-cAMP antibody was added to each well. The plate was covered to prevent evaporation and incubated for 60 minutes at room temperature in the dark. Plates were read on an Envision fluorescent plate reader (PerkinElmer).
(§4) Test values were first normalized to the system maximum and system minimum averaged values in Excel using the formula: (test value−system min average)/(system max average -system min average)*100. Normalized test values represent a baseline corrected percentage of the system maximum cAMP response induced by forskolin. Data from up to 3 replicate tests were analyzed for each peptide. Potency values were estimated using GraphPad Prism software (v7.04) by fitting data to a 4-parameter logistic curve model: Y=Bottom+(Top−Bottom)/(1+10^((LogEC50−X))). The Hill slope was constrained to 1.0. EC50 values were converted to pEC50 values using the formula: pEC50=−Log (EC50).

[2] = target: T2, human Glucagon receptor (GCGR) (Homo sapiens, UniProt P47871); experiment: cAMP accumulation assay, CHO-K1 cells expressing human GCGR; type: cell-based; conditions: mean pEC50, Table 10
T2 construct: A cDNA fragment encoding the full-length open reading frame of the human GCGR; expressed in transfected cells; host or cells: CHO-K1, pcDNA3.1+, Lipofectamine 2000
T2 sequence (P47871 26-477): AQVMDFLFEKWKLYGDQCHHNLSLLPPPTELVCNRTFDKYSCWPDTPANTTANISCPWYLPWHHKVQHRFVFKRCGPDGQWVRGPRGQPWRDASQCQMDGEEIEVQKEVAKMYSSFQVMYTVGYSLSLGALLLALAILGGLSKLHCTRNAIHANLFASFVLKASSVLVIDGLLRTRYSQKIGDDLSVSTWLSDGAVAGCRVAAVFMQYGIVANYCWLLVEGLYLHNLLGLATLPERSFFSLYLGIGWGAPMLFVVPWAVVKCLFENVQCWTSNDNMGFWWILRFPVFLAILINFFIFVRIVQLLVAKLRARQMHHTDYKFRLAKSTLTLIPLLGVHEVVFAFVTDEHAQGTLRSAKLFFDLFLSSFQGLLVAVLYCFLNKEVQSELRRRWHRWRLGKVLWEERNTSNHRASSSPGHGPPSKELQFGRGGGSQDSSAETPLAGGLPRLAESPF
Source text: as §1
A cDNA fragment encoding the full-length open reading frame of the cynomolgus monkey GLP-1R (Genebank accession #XM_028847603 was cloned into pcDNA3.1+ for expression in CHO-K1 cells. A cDNA fragment encoding the full-length open reading frame of the human GCGR (Genebank accession #NM_000160 was cloned into pcDNA3.1+ for expression in CHO-K1 cells. A cDNA fragment encoding the full-length open reading frame of the rat GCGR (Genebank accession #NM_12091 was cloned into pcDNA3.1+ for expression in CHO-K1 cells. A cDNA fragment encoding the full-length open reading frame of the cynomolgus monkey GCGR (Genebank accession #XM_005585255 was cloned into pcDNA3.1+ for expression in CHO-K1 cells.
as §2, §3, §4

| SMILES | EC50 [1] [pM] | EC50 [2] [pM] |
| --- | --- | --- |
| CC(C)C[C@H](NC(=O)[C@H](Cc1ccc(O)cc1)NC(=O)[C@H](CCCCN)NC(=O)[C@H](CO)NC(=O)[C@H](Cc1ccc(O)cc1)NC(=O)[C@H](CC(=O)O)NC(=O)[C@H](CO)NC(=O)[C@@H](NC(=O)[C@H](Cc1ccccc1)NC(=O)[C@@H](NC(=O)CNC(=O)[C@H](Cc1c[nH]cn1)NC(=O)[C@H](CO)NC(=O)[C@@H](N)Cc1ccc(O)cc1)[C@@H](C)O)[C@@H](C)O)C(=O)N[C@@H](CC(=O)O)C(=O)N[C@@H](CCCCNC(=O)CC[C@H](NC(=O)CC[C@H](NC(=O)COCCOCCNC(=O)CCCCCCCCCCCCCCCCCCC(=O)O)C(=O)O)C(=O)O)C(=O)N[C@@H](CCCCN)C(=O)N[C@@H](Cc1ccc(O)cc1)C(=O)N[C@@H](C)C(=O)N[C@@H](CCC(N)=O)C(=O)N[C@@H](CCC(=O)O)C(=O)N[C@@H](Cc1ccccc1)C(=O)NC(C)(C)C(=O)N[C@@H](CCC(N)=O)C(=O)N[C@@H](Cc1c[nH]c2ccccc12)C(=O)N[C@@H](CC(C)C)C(=O)N[C@@H](CCC(=O)O)C(=O)N[C@@H](CC(=O)O)C(=O)N[C@@H](CCC(=O)O)C(=O)N1CCC[C@H]1C(=O)N[C@@H](CO)C(=O)N[C@@H](CO)C(=O)NCC(=O)N[C@@H](C)C(=O)N1CCC[C@H]1C(=O)N1CCC[C@H]1C(=O)N1CCC[C@H]1C(=O)N[C@@H](CO)C(=O)O [Compound A7] (H-YSHGTFTSDYSKYLDK([γGlu-γGlu-AEEA-C20 diacid])KYAQEF[Aib]QWLEDEPSSGAPPPS-OH; N-terminus assumed) | > 1000 | 20 |
| CC(C)C[C@H](NC(=O)[C@H](Cc1ccc(O)cc1)NC(=O)[C@H](CCCCN)NC(=O)[C@H](CO)NC(=O)[C@H](Cc1ccc(O)cc1)NC(=O)[C@H](CC(=O)O)NC(=O)[C@H](CO)NC(=O)[C@@H](NC(=O)[C@H](Cc1ccccc1)NC(=O)[C@@H](NC(=O)CNC(=O)[C@H](Cc1c[nH]cn1)NC(=O)[C@H](CO)NC(=O)[C@@H](N)Cc1ccc(O)cc1)[C@@H](C)O)[C@@H](C)O)C(=O)N[C@@H](CC(=O)O)C(=O)N[C@@H](CCCCNC(=O)CC[C@H](NC(=O)CC[C@H](NC(=O)COCCOCCNC(=O)CCCCCCCCCCCCCCCCCCC(=O)O)C(=O)O)C(=O)O)C(=O)N[C@@H](CCCCN)C(=O)N[C@@H](Cc1ccc(O)cc1)C(=O)N[C@@H](C)C(=O)N[C@@H](CCC(N)=O)C(=O)N[C@@H](CCC(=O)O)C(=O)N[C@@H](Cc1ccccc1)C(=O)NC(C)(C)C(=O)N[C@@H](CCC(=O)O)C(=O)N[C@@H](Cc1c[nH]c2ccccc12)C(=O)N[C@@H](CC(C)C)C(=O)N[C@@H](CCC(=O)O)C(=O)N[C@@H](CC(=O)O)C(=O)N[C@@H](CCC(=O)O)C(=O)N1CCC[C@H]1C(=O)N[C@@H](CO)C(=O)N[C@@H](CO)C(=O)NCC(=O)N[C@@H](C)C(=O)N1CCC[C@H]1C(=O)N1CCC[C@H]1C(=O)N1CCC[C@H]1C(=O)N[C@@H](CO)C(=O)O [Compound A8] (H-YSHGTFTSDYSKYLDK([γGlu-γGlu-AEEA-C20 diacid])KYAQEF[Aib]EWLEDEPSSGAPPPS-OH; N-terminus assumed) | > 1000 | 126 |
| CC(C)C[C@H](NC(=O)[C@H](Cc1ccc(O)cc1)NC(=O)[C@H](CCCCN)NC(=O)[C@H](CO)NC(=O)[C@H](Cc1ccc(O)cc1)NC(=O)[C@H](CC(=O)O)NC(=O)[C@H](CO)NC(=O)[C@@H](NC(=O)[C@H](Cc1ccccc1)NC(=O)[C@@H](NC(=O)CNC(=O)[C@H](Cc1c[nH]cn1)NC(=O)[C@H](CO)NC(=O)[C@@H](N)Cc1ccc(O)cc1)[C@@H](C)O)[C@@H](C)O)C(=O)N[C@@H](CC(=O)O)C(=O)N[C@@H](CCCCNC(=O)CC[C@H](NC(=O)CC[C@H](NC(=O)COCCOCCNC(=O)CCCCCCCCCCCCCCCCCCC(=O)O)C(=O)O)C(=O)O)C(=O)N[C@@H](CCCCN)C(=O)N[C@@H](Cc1ccc(O)cc1)C(=O)N[C@@H](C)C(=O)N[C@@H](CCC(N)=O)C(=O)N[C@@H](CCC(=O)O)C(=O)N[C@@H](Cc1ccccc1)C(=O)NC(C)(C)C(=O)N[C@@H](CCCCN)C(=O)N[C@@H](Cc1c[nH]c2ccccc12)C(=O)N[C@@H](CC(C)C)C(=O)N[C@@H](CCC(=O)O)C(=O)N[C@@H](CC(=O)O)C(=O)N[C@@H](CCC(=O)O)C(=O)N1CCC[C@H]1C(=O)N[C@@H](CO)C(=O)N[C@@H](CO)C(=O)NCC(=O)N[C@@H](C)C(=O)N1CCC[C@H]1C(=O)N1CCC[C@H]1C(=O)N1CCC[C@H]1C(=O)N[C@@H](CO)C(=O)O [Compound A9] (H-YSHGTFTSDYSKYLDK([γGlu-γGlu-AEEA-C20 diacid])KYAQEF[Aib]KWLEDEPSSGAPPPS-OH; N-terminus assumed) | > 1000 | 25.1 |
| CC(C)C[C@H](NC(=O)[C@H](Cc1ccc(O)cc1)NC(=O)[C@H](CCCCN)NC(=O)[C@H](CO)NC(=O)[C@H](Cc1ccc(O)cc1)NC(=O)[C@H](CC(=O)O)NC(=O)[C@H](CO)NC(=O)[C@@H](NC(=O)[C@H](Cc1ccccc1)NC(=O)[C@@H](NC(=O)CNC(=O)[C@H](Cc1c[nH]cn1)NC(=O)[C@H](CO)NC(=O)[C@@H](N)Cc1ccc(O)cc1)[C@@H](C)O)[C@@H](C)O)C(=O)N[C@@H](CC(=O)O)C(=O)N[C@@H](CCCCNC(=O)CC[C@H](NC(=O)CC[C@H](NC(=O)COCCOCCNC(=O)CCCCCCCCCCCCCCCCCCC(=O)O)C(=O)O)C(=O)O)C(=O)N[C@@H](CCCCN)C(=O)N[C@@H](Cc1ccc(O)cc1)C(=O)N[C@@H](C)C(=O)N[C@@H](CCC(N)=O)C(=O)N[C@@H](CCC(=O)O)C(=O)N[C@@H](Cc1ccccc1)C(=O)NC(C)(C)C(=O)N[C@@H](CO)C(=O)N[C@@H](Cc1c[nH]c2ccccc12)C(=O)N[C@@H](CC(C)C)C(=O)N[C@@H](CCC(=O)O)C(=O)N[C@@H](CC(=O)O)C(=O)N[C@@H](CCC(=O)O)C(=O)N1CCC[C@H]1C(=O)N[C@@H](CO)C(=O)N[C@@H](CO)C(=O)NCC(=O)N[C@@H](C)C(=O)N1CCC[C@H]1C(=O)N1CCC[C@H]1C(=O)N1CCC[C@H]1C(=O)N[C@@H](CO)C(=O)O [Compound A10] (H-YSHGTFTSDYSKYLDK([γGlu-γGlu-AEEA-C20 diacid])KYAQEF[Aib]SWLEDEPSSGAPPPS-OH; N-terminus assumed) | > 1000 | 39.8 |
| CC(C)C[C@H](NC(=O)[C@H](Cc1ccc(O)cc1)NC(=O)[C@H](CCCCN)NC(=O)[C@H](CO)NC(=O)[C@H](Cc1ccc(O)cc1)NC(=O)[C@H](CC(=O)O)NC(=O)[C@H](CO)NC(=O)[C@@H](NC(=O)[C@H](Cc1ccccc1)NC(=O)[C@@H](NC(=O)CNC(=O)[C@H](Cc1c[nH]cn1)NC(=O)[C@H](CO)NC(=O)[C@@H](N)Cc1ccc(O)cc1)[C@@H](C)O)[C@@H](C)O)C(=O)N[C@@H](CC(=O)O)C(=O)N[C@@H](CCCCNC(=O)CC[C@H](NC(=O)CC[C@H](NC(=O)COCCOCCNC(=O)CCCCCCCCCCCCCCCCCCC(=O)O)C(=O)O)C(=O)O)C(=O)N[C@@H](CCCCN)C(=O)N[C@@H](Cc1ccc(O)cc1)C(=O)N[C@@H](C)C(=O)N[C@H]1CCCCNC(=O)CC[C@@H](C(=O)N[C@@H](Cc2c[nH]c3ccccc23)C(=O)N[C@@H](CC(C)C)C(=O)N[C@@H](CCC(=O)O)C(=O)N[C@@H](CC(=O)O)C(=O)N[C@@H](CCC(=O)O)C(=O)N2CCC[C@H]2C(=O)N[C@@H](CO)C(=O)N[C@@H](CO)C(=O)NCC(=O)N[C@@H](C)C(=O)N2CCC[C@H]2C(=O)N2CCC[C@H]2C(=O)N2CCC[C@H]2C(=O)N[C@@H](CO)C(=O)O)NC(=O)[C@H](C(C)C)NC(=O)[C@H](Cc2ccccc2)NC(=O)[C@H](CCC(=O)O)NC1=O [Compound A11] (H-YSHGTFTSDYSKYLDK([γGlu-γGlu-AEEA-C20 diacid])KYAKEFVEWLEDEPSSGAPPPS-OH; lactam 20-24) | > 1000 | 2 |
